{
  "source": "patent US20170065593A1",
  "about": "“Combination” (Novartis AG, priority 2009, published 2017)",
  "tested_on": "A549 lung cancer cell line",
  "assay": "Assay 2: cell growth (CellTiterGlo, 72 hours), Ymin",
  "assay_type": "cell-based",
  "details": "percent of T=0 (T=0 = 100%)",
  "experimental": "FIG. 5 depicts the effect of MEK inhibitor, mTOR inhibitor and their combination on A549 lung cancer cell line growth. […] Cells were treated with MEK inhibitor (two fold dilutions ranging from 7.3 uM-0.014 nM) or with mTOR inhibitor (two fold dilutions ranging from 14.6 uM-0.112 nM) or in combination with both compounds and incubated for 72 hours. Cell growth was measured using the CellTiterGlo (CTG) reagent (Promega) according to the manufacturer's protocol. Data were analyzed using the XLfit (IDBS Ltd.) curve-fitting tool for Microsoft Excel. Growth IC50 (gIC50) and Ymin values were generated using a four-parameter curve fit algorithm (XLFit algorithm #205). Results were expressed as a percent of the t=0 and plotted against the compound concentration. […] Formula below was used to calculate mutually exclusive combination index (CI). Data were reported as log CI, where the logarithm value of CI was calculated. […] Similar analysis was performed for all cell lines and Ymin results are depicted in FIG. 6.",
  "data": [
    {"substance": "N-{3-[3-cyclopropyl-5-(2-fluoro-4-iodo-phenylamino)6,8-dimethyl;-2,4,7-trioxo-3,4,6,7-tetrahydro-2H-pyrido[4,3-d]pyrimidin-1-yl]phenyl}acetamide [Compound A]", "values": [
      {"measurement": "Ymin (lower Y value at any compound concentration)", "result": 257, "unit": "%"}
    ]}
  ]
}
